Values of other authors as cited in patent publication US7642353B2, “Process of making crystalline aripiprazole” (Synthon BV, priority 2004, dated 2010).

Compound | water uptake (in 24 hours) | hygroscopicity (solid form, as taught by WO 03/26659)
O=C1CCc2ccc(OCCCCN3CCN(c4cccc(Cl)c4Cl)CC3)cc2N1 [Anhydrous Form B, 7-[4-[4-(2,3-dichlorophenyl)-1-piperazinyl]butoxy]-3,4-dihydrocarbostyril] | less than 0.4% | –
O=C1CCc2ccc(OCCCCN3CCN(c4cccc(Cl)c4Cl)CC3)cc2N1 [Type I aripiprazole, 7-[4-[4-(2,3-dichlorophenyl)-1-piperazinyl]butoxy]-3,4-dihydrocarbostyril] | – | significantly hygroscopic
